{"source": "patent US9636347B2", "about": "“Sustained release formulations for the treatment of intraocular pressure or glaucoma” (Icon Bioscience, Inc., priority 2013, dated 2017)", "key": {"[1]": {"test": "Solubility of latanoprost", "type": "physicochemical", "settings": "1%, 2% or 4% (w/w %) formulations, clear solution", "description": "Latanoprost and other prostaglandin analogs are available commercially, for example, from Cayman Chemical (Ann Arbor, Mich.).\nLiquid formulations of latanoprost and benzyl benzoate were made by weighing each component and mixing them together. Latanoprost is soluble in benzyl benzoate, yielding a clear solution. The formulations were either 1%, 2%, or 4% (w/w %) latanoprost."}, "[2]": {"settings": "cited from earlier work"}}}
{"smiles": "CC(C)OC(=O)CCC/C=C\\C[C@@H]1[C@@H](CC[C@@H](O)CCc2ccccc2)[C@H](O)C[C@@H]1O", "note": "[Latanoprost, isopropyl-(Z)7[(1R,2R,3R,5S)3,5-dihydroxy-2-[(3R)-3-hydroxy-5-phenylpentyl]cyclopentyl]-5-heptenoate]", "values": [{"measurement": "solubility in benzyl benzoate", "setting": "[1]", "result": "soluble"}, {"measurement": "solubility in acetone, ethanol, ethyl acetate, isopropanol, methanol, and octanol", "setting": "[2]; acetone, ethanol, ethyl acetate, isopropanol, methanol, octanol", "result": "freely soluble"}, {"measurement": "solubility in acetonitrile", "setting": "[2]; acetonitrile", "result": "very soluble"}, {"measurement": "solubility in water", "setting": "[2]; water", "result": "practically insoluble"}]}
